Read-outs that look alike come from different tables or passages of the source.
Experiments:
Saos-2 osteoblasts = settings: for cell viability: 3 days of incubation, % of that of the control, FIG. 4A
Protocol: The cells were then seeded at the concentration of 1×10^4 cells/well in 96-well Multiwell plates (Sarstedt, cat. no. 83,3924, Germany) and divided into three groups:
(§1) 1) a control group, wherein the cells were neither treated nor stimulated;
(§2) Each sample was tested in four replications.

[1] = tested on: primary bovine chondrocytes; settings: for cytotoxic effect: 7 days
Protocol: The ability of the conjugate to release alendronate in a controlled way and also to have an effect on cartilage tissue was evaluated by in vitro testing on primary bovine chondrocytes.
as §1, §2

[2] = Rheological properties: viscoelastic moduli (frequency sweep) after adding CaCl2; format: physicochemical; settings: 20 mg/mL in 0.1 M TRIS pH 7, alendronate 2.4 mg/mL, CaCl2 2 mg/mL, 20° C, 0.1-100 rad/s; FIG. 2

## NCCCC(O)(P(=O)(O)O)P(=O)(O)O [alendronate]
Saos-2 osteoblasts; Saos-2, 50 μM
  cell viability: < 70%
Saos-2 osteoblasts; Saos-2, 100 μM
  cell viability: < 70%
Saos-2 osteoblasts; Saos-2, 3 versus 7 days
  cytotoxicity as a function of incubation period: increases significantly in proportion to the incubation period
[1]
  onset of the effect on the cells: acts on the primary bovine chondrocytes after only 72 hours of incubation
[1]; 50 μM
  cytotoxic effect: maximum cytotoxic effect
[1]; 100 μM
  cytotoxic effect: maximum cytotoxic effect
[2]
  viscoelastic moduli G′ (elastic) and G″ (viscous), comparison in words: no effect on rheological behaviour
